Reference: PubChem BioAssay (NCI)
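Briefly, cells in 96-well plates were exposed to five compound concentrations for 48 h, and endpoints were estimated by linear interpolation. GI50 is the concentration that inhibits growth by half. At the TGI there is no net growth.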

Test system: MCF7 breast
Assay: NCI anticancer screen, dose series, 48 h

Point of comparison: `Nc1c(C(=O)Nc2cccc(C(F)(F)F)c2)sc2nc3c(cc12)CCCCC3`, TGI 13.6 µM. Against it:
- O=CNc1ccc2c(c1)C(=O)c1ccccc1-2 — higher, > 100 µM
- O=C(Nc1ccc(Oc2ccc(Nc3nc4ccccc4s3)cc2)cc1)Nc1ccc(Cl)c(C(F)(F)F)c1 — 3.7-fold lower, 3.7 µM
- COc1ccc2nc3cc(Cl)ccc3c(NCCNCC(C)O)c2c1 (stereo not given) — 2.5-fold lower, 5.51 µM
- CCn1c(-c2nonc2N)nc2c(C#CC(C)(C)O)nc(OC[C@@H](N)c3ccccc3)cc21 — 2.2-fold lower, 6.12 µM
- CCCOc1cc2ccccc2cc1C(=O)Nc1nc(N)c2c(ccc3nccc32)[nH]1 — 9.1-fold lower, 1.5 µM
- CC1(C)OC1COc1c2occc2cc2ccc(=O)oc12 (stereo not given) — higher, > 100 µM
- CCCCCCCCCCCCC(O)c1ccc(C#CCCCCCCCCCO)o1 (stereo not given) — 3.1-fold higher, 42.3 µM
- Nc1n[nH]c2cc(F)c([C@@H]3Nc4ccc5[nH]ncc5c4[C@H]4C5CCC(C5)[C@@H]34)cc12 (stereo not given in full) — within 1.5-fold, 9.18 µM
- COc1ccc(CCN=C2NC(=O)/C(=C/c3ccc4ncccc4c3)S2)cc1 — higher, > 25 µM
- COC[C@H]1Cn2cc(-c3nc(Nc4ccnn4C)ncc3C)nc2C(=O)N1Cc1ccc(F)c(F)c1 — higher, > 100 µM

Point of comparison: `CCn1c(-c2nonc2N)nc2c(C#CC(C)(C)O)nc(OC[C@@H](N)c3ccccc3)cc21`, GI50 2.94 µM. Against it:
- O=C(Nc1ccc(Oc2ccc(Nc3nc4ccccc4s3)cc2)cc1)Nc1ccc(Cl)c(C(F)(F)F)c1 — 2.2-fold lower, 1.35 µM
- Nc1c(C(=O)Nc2cccc(C(F)(F)F)c2)sc2nc3c(cc12)CCCCC3 — within 1.5-fold, 2.35 µM
- COc1ccc2nc3cc(Cl)ccc3c(NCCNCC(C)O)c2c1 (stereo not given) — 2.3-fold lower, 1.28 µM
- CCCOc1cc2ccccc2cc1C(=O)Nc1nc(N)c2c(ccc3nccc32)[nH]1 — 64-fold lower, 0.0459 µM
- CCCCCCCCCCCCC(O)c1ccc(C#CCCCCCCCCCO)o1 (stereo not given) — 5.9-fold higher, 17.3 µM
- Nc1n[nH]c2cc(F)c([C@@H]3Nc4ccc5[nH]ncc5c4[C@H]4C5CCC(C5)[C@@H]34)cc12 (stereo not given in full) — 26-fold lower, 0.115 µM
- COc1ccc(CCN=C2NC(=O)/C(=C/c3ccc4ncccc4c3)S2)cc1 — higher, > 25 µM
- COC[C@H]1Cn2cc(-c3nc(Nc4ccnn4C)ncc3C)nc2C(=O)N1Cc1ccc(F)c(F)c1 — 3.3-fold higher, 9.79 µM

Test system: NCI-H226 lung
Assay: NCI anticancer screen, dose series, 48 h

Point of comparison: `Nc1c(C(=O)Nc2cccc(C(F)(F)F)c2)sc2nc3c(cc12)CCCCC3`, TGI 16 µM. Against it:
- O=CNc1ccc2c(c1)C(=O)c1ccccc1-2 — higher, > 100 µM
- O=C(Nc1ccc(Oc2ccc(Nc3nc4ccccc4s3)cc2)cc1)Nc1ccc(Cl)c(C(F)(F)F)c1 — 4.8-fold lower, 3.33 µM
- COc1ccc2nc3cc(Cl)ccc3c(NCCNCC(C)O)c2c1 (stereo not given) — 2.6-fold lower, 6.04 µM
- CCn1c(-c2nonc2N)nc2c(C#CC(C)(C)O)nc(OC[C@@H](N)c3ccccc3)cc21 — within 1.5-fold, 16.2 µM
- CCCOc1cc2ccccc2cc1C(=O)Nc1nc(N)c2c(ccc3nccc32)[nH]1 — 4.8-fold lower, 3.32 µM
- CC1(C)OC1COc1c2occc2cc2ccc(=O)oc12 (stereo not given) — higher, > 100 µM
- CCCCCCCCCCCCC(O)c1ccc(C#CCCCCCCCCCO)o1 (stereo not given) — 2.4-fold higher, 37.9 µM
- Nc1n[nH]c2cc(F)c([C@@H]3Nc4ccc5[nH]ncc5c4[C@H]4C5CCC(C5)[C@@H]34)cc12 (stereo not given in full) — 4.7-fold lower, 3.38 µM
- COc1ccc(CCN=C2NC(=O)/C(=C/c3ccc4ncccc4c3)S2)cc1 — higher, > 25 µM
- COC[C@H]1Cn2cc(-c3nc(Nc4ccnn4C)ncc3C)nc2C(=O)N1Cc1ccc(F)c(F)c1 — higher, > 100 µM

Point of comparison: `COC[C@H]1Cn2cc(-c3nc(Nc4ccnn4C)ncc3C)nc2C(=O)N1Cc1ccc(F)c(F)c1`, GI50 25.8 µM. Against it:
- O=C(Nc1ccc(Oc2ccc(Nc3nc4ccccc4s3)cc2)cc1)Nc1ccc(Cl)c(C(F)(F)F)c1 — 19-fold lower, 1.39 µM
- Nc1c(C(=O)Nc2cccc(C(F)(F)F)c2)sc2nc3c(cc12)CCCCC3 — 16-fold lower, 1.57 µM
- COc1ccc2nc3cc(Cl)ccc3c(NCCNCC(C)O)c2c1 (stereo not given) — 11-fold lower, 2.3 µM
- CCn1c(-c2nonc2N)nc2c(C#CC(C)(C)O)nc(OC[C@@H](N)c3ccccc3)cc21 — 2.2-fold lower, 11.9 µM
- CCCOc1cc2ccccc2cc1C(=O)Nc1nc(N)c2c(ccc3nccc32)[nH]1 — 20-fold lower, 1.31 µM
- CCCCCCCCCCCCC(O)c1ccc(C#CCCCCCCCCCO)o1 (stereo not given) — within 1.5-fold, 21.2 µM
- Nc1n[nH]c2cc(F)c([C@@H]3Nc4ccc5[nH]ncc5c4[C@H]4C5CCC(C5)[C@@H]34)cc12 (stereo not given in full) — 130-fold lower, 0.192 µM
- COc1ccc(CCN=C2NC(=O)/C(=C/c3ccc4ncccc4c3)S2)cc1 — not separable, > 25 µM

Test system: NCI-H460 lung
Assay: NCI anticancer screen, dose series, 48 h

Point of comparison: `O=C(Nc1ccc(Oc2ccc(Nc3nc4ccccc4s3)cc2)cc1)Nc1ccc(Cl)c(C(F)(F)F)c1`, TGI 4.34 µM. Against it:
- O=CNc1ccc2c(c1)C(=O)c1ccccc1-2 — higher, > 100 µM
- Nc1c(C(=O)Nc2cccc(C(F)(F)F)c2)sc2nc3c(cc12)CCCCC3 — 2.6-fold higher, 11.4 µM
- COc1ccc2nc3cc(Cl)ccc3c(NCCNCC(C)O)c2c1 (stereo not given) — within 1.5-fold, 2.99 µM
- CCn1c(-c2nonc2N)nc2c(C#CC(C)(C)O)nc(OC[C@@H](N)c3ccccc3)cc21 — 1.9-fold higher, 8.12 µM
- CCCOc1cc2ccccc2cc1C(=O)Nc1nc(N)c2c(ccc3nccc32)[nH]1 — 3.3-fold lower, 1.31 µM
- CC1(C)OC1COc1c2occc2cc2ccc(=O)oc12 (stereo not given) — higher, > 100 µM
- CCCCCCCCCCCCC(O)c1ccc(C#CCCCCCCCCCO)o1 (stereo not given) — 17-fold higher, 75.4 µM
- Nc1n[nH]c2cc(F)c([C@@H]3Nc4ccc5[nH]ncc5c4[C@H]4C5CCC(C5)[C@@H]34)cc12 (stereo not given in full) — within 1.5-fold, 5.86 µM
- COc1ccc(CCN=C2NC(=O)/C(=C/c3ccc4ncccc4c3)S2)cc1 — higher, > 25 µM
- COC[C@H]1Cn2cc(-c3nc(Nc4ccnn4C)ncc3C)nc2C(=O)N1Cc1ccc(F)c(F)c1 — higher, > 100 µM

Point of comparison: `O=C(Nc1ccc(Oc2ccc(Nc3nc4ccccc4s3)cc2)cc1)Nc1ccc(Cl)c(C(F)(F)F)c1`, GI50 1.74 µM. Against it:
- Nc1c(C(=O)Nc2cccc(C(F)(F)F)c2)sc2nc3c(cc12)CCCCC3 — 1.5-fold higher, 2.61 µM
- COc1ccc2nc3cc(Cl)ccc3c(NCCNCC(C)O)c2c1 (stereo not given) — 2.6-fold lower, 0.668 µM
- CCn1c(-c2nonc2N)nc2c(C#CC(C)(C)O)nc(OC[C@@H](N)c3ccccc3)cc21 — 2.3-fold higher, 3.97 µM
- CCCOc1cc2ccccc2cc1C(=O)Nc1nc(N)c2c(ccc3nccc32)[nH]1 — 42-fold lower, 0.0417 µM
- CCCCCCCCCCCCC(O)c1ccc(C#CCCCCCCCCCO)o1 (stereo not given) — 16-fold higher, 28.3 µM
- Nc1n[nH]c2cc(F)c([C@@H]3Nc4ccc5[nH]ncc5c4[C@H]4C5CCC(C5)[C@@H]34)cc12 (stereo not given in full) — 9.8-fold lower, 0.177 µM
- COc1ccc(CCN=C2NC(=O)/C(=C/c3ccc4ncccc4c3)S2)cc1 — higher, > 25 µM
- COC[C@H]1Cn2cc(-c3nc(Nc4ccnn4C)ncc3C)nc2C(=O)N1Cc1ccc(F)c(F)c1 — 7.1-fold higher, 12.3 µM

Test system: PC-3 prostate
Assay: NCI anticancer screen, dose series, 48 h

Point of comparison: `CCCCCCCCCCCCC(O)c1ccc(C#CCCCCCCCCCO)o1` (stereo not given), TGI 59.6 µM. Against it:
- O=CNc1ccc2c(c1)C(=O)c1ccccc1-2 — higher, > 100 µM
- O=C(Nc1ccc(Oc2ccc(Nc3nc4ccccc4s3)cc2)cc1)Nc1ccc(Cl)c(C(F)(F)F)c1 — 21-fold lower, 2.79 µM
- Nc1c(C(=O)Nc2cccc(C(F)(F)F)c2)sc2nc3c(cc12)CCCCC3 — 1.7-fold lower, 34.2 µM
- COc1ccc2nc3cc(Cl)ccc3c(NCCNCC(C)O)c2c1 (stereo not given) — 10-fold lower, 5.86 µM
- CCn1c(-c2nonc2N)nc2c(C#CC(C)(C)O)nc(OC[C@@H](N)c3ccccc3)cc21 — 2.4-fold lower, 25 µM
- CCCOc1cc2ccccc2cc1C(=O)Nc1nc(N)c2c(ccc3nccc32)[nH]1 — 27-fold lower, 2.22 µM
- CC1(C)OC1COc1c2occc2cc2ccc(=O)oc12 (stereo not given) — higher, > 100 µM
- Nc1n[nH]c2cc(F)c([C@@H]3Nc4ccc5[nH]ncc5c4[C@H]4C5CCC(C5)[C@@H]34)cc12 (stereo not given in full) — 3.2-fold lower, 18.7 µM
- COc1ccc(CCN=C2NC(=O)/C(=C/c3ccc4ncccc4c3)S2)cc1 — not separable, > 25 µM
- COC[C@H]1Cn2cc(-c3nc(Nc4ccnn4C)ncc3C)nc2C(=O)N1Cc1ccc(F)c(F)c1 — higher, > 100 µM

Point of comparison: `COc1ccc2nc3cc(Cl)ccc3c(NCCNCC(C)O)c2c1` (stereo not given), GI50 2.33 µM. Against it:
- O=C(Nc1ccc(Oc2ccc(Nc3nc4ccccc4s3)cc2)cc1)Nc1ccc(Cl)c(C(F)(F)F)c1 — 2.2-fold lower, 1.07 µM
- Nc1c(C(=O)Nc2cccc(C(F)(F)F)c2)sc2nc3c(cc12)CCCCC3 — within 1.5-fold, 3.21 µM
- CCn1c(-c2nonc2N)nc2c(C#CC(C)(C)O)nc(OC[C@@H](N)c3ccccc3)cc21 — 3.3-fold higher, 7.73 µM
- CCCOc1cc2ccccc2cc1C(=O)Nc1nc(N)c2c(ccc3nccc32)[nH]1 — 47-fold lower, 0.0492 µM
- CCCCCCCCCCCCC(O)c1ccc(C#CCCCCCCCCCO)o1 (stereo not given) — 11-fold higher, 25.2 µM
- Nc1n[nH]c2cc(F)c([C@@H]3Nc4ccc5[nH]ncc5c4[C@H]4C5CCC(C5)[C@@H]34)cc12 (stereo not given in full) — 9.8-fold lower, 0.238 µM
- COc1ccc(CCN=C2NC(=O)/C(=C/c3ccc4ncccc4c3)S2)cc1 — higher, > 25 µM
- COC[C@H]1Cn2cc(-c3nc(Nc4ccnn4C)ncc3C)nc2C(=O)N1Cc1ccc(F)c(F)c1 — higher, > 100 µM

Test system: UACC-257 melanoma
Assay: NCI anticancer screen, dose series, 48 h

Point of comparison: `CCn1c(-c2nonc2N)nc2c(C#CC(C)(C)O)nc(OC[C@@H](N)c3ccccc3)cc21`, TGI 9.83 µM. Against it:
- O=CNc1ccc2c(c1)C(=O)c1ccccc1-2 — higher, > 100 µM
- O=C(Nc1ccc(Oc2ccc(Nc3nc4ccccc4s3)cc2)cc1)Nc1ccc(Cl)c(C(F)(F)F)c1 — 1.6-fold lower, 6.09 µM
- Nc1c(C(=O)Nc2cccc(C(F)(F)F)c2)sc2nc3c(cc12)CCCCC3 — 3.8-fold higher, 37.4 µM
- COc1ccc2nc3cc(Cl)ccc3c(NCCNCC(C)O)c2c1 (stereo not given) — 2.6-fold lower, 3.73 µM
- CCCOc1cc2ccccc2cc1C(=O)Nc1nc(N)c2c(ccc3nccc32)[nH]1 — 3.8-fold lower, 2.62 µM
- CC1(C)OC1COc1c2occc2cc2ccc(=O)oc12 (stereo not given) — higher, > 100 µM
- CCCCCCCCCCCCC(O)c1ccc(C#CCCCCCCCCCO)o1 (stereo not given) — 5.2-fold higher, 51 µM
- Nc1n[nH]c2cc(F)c([C@@H]3Nc4ccc5[nH]ncc5c4[C@H]4C5CCC(C5)[C@@H]34)cc12 (stereo not given in full) — 4.6-fold higher, 44.8 µM
- COc1ccc(CCN=C2NC(=O)/C(=C/c3ccc4ncccc4c3)S2)cc1 — higher, > 25 µM
- COC[C@H]1Cn2cc(-c3nc(Nc4ccnn4C)ncc3C)nc2C(=O)N1Cc1ccc(F)c(F)c1 — higher, > 100 µM

Point of comparison: `COC[C@H]1Cn2cc(-c3nc(Nc4ccnn4C)ncc3C)nc2C(=O)N1Cc1ccc(F)c(F)c1`, GI50 0.0352 µM. Against it:
- O=C(Nc1ccc(Oc2ccc(Nc3nc4ccccc4s3)cc2)cc1)Nc1ccc(Cl)c(C(F)(F)F)c1 — 52-fold higher, 1.83 µM
- Nc1c(C(=O)Nc2cccc(C(F)(F)F)c2)sc2nc3c(cc12)CCCCC3 — 100-fold higher, 3.64 µM
- COc1ccc2nc3cc(Cl)ccc3c(NCCNCC(C)O)c2c1 (stereo not given) — 61-fold higher, 2.14 µM
- CCn1c(-c2nonc2N)nc2c(C#CC(C)(C)O)nc(OC[C@@H](N)c3ccccc3)cc21 — 160-fold higher, 5.67 µM
- CCCOc1cc2ccccc2cc1C(=O)Nc1nc(N)c2c(ccc3nccc32)[nH]1 — 34-fold higher, 1.21 µM
- CCCCCCCCCCCCC(O)c1ccc(C#CCCCCCCCCCO)o1 (stereo not given) — 680-fold higher, 24.1 µM
- Nc1n[nH]c2cc(F)c([C@@H]3Nc4ccc5[nH]ncc5c4[C@H]4C5CCC(C5)[C@@H]34)cc12 (stereo not given in full) — 110-fold higher, 3.98 µM
- COc1ccc(CCN=C2NC(=O)/C(=C/c3ccc4ncccc4c3)S2)cc1 — higher, > 25 µM
